From the METLIN SMRT retention time set (Domingo-Almenara et al. 2019)

Assay: gradient 5% acetonitrile 3 min, to 50% in 2 min, to 85% in 15 min, held 3 min, 100 µL/min
Details: column: Zorbax Extend-C18 2.1 x 50 mm; eluents: water / acetonitrile, 0.1% formic acid
Summary of the method: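 Standards, all pure, were combined into mixtures of ~100 molecules and run at 100 μL/min on a Zorbax Extend-C18 column (2.1 × 50 mm, 1.8 μm) with water and acetonitrile, each containing 0.1% formic acid. A coupled quadrupole time-of-flight mass spectrometer operated in positive and negative ionization mode. Retention time values come from computationally picked adduct peaks, each inspected manually.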

Row | RP-LC retention time [s] | Structure (SMILES)
1 | 1040 | Cc1ccc(-c2nc3cnccn3c2Nc2cc(C)cc(C)c2)cc1
2 | 618 | CCC(C(=O)NCCN(C)C)n1c2ccccc2c2cnn(C)c(=O)c21 (stereo not drawn)
3 | 918 | O=C(c1cc2ccccc2[nH]1)N1CCN(c2ccc(=O)n(-c3ccc(Cl)cc3)n2)CC1
4 | 896 | Cc1ccc(CCNC(=O)C2CCCN2S(=O)(=O)c2ccc3c(c2)C(C)(C)C(=O)N3C)cc1 (stereo not drawn)
5 | 585 | COc1ccc2[nH]c(=O)c(CCC(=O)NCCCN3CCCC(C)C3)cc2c1 (stereo not drawn)
6 | 658 | CN(C)c1ccc(CNC(=O)CCCn2c(=O)c3cccn3c3ccc(F)cc32)cc1
7 | 900 | COc1cccc(CCNC(=O)CN2C(=O)CSc3cccn3-c3ccccc32)c1
8 | 699 | CC(NC(=O)C1CCN(c2cnc(N3CCCC3)nc2)CC1)c1ccc(F)cc1 (stereo not drawn)
9 | 996 | O=C(Nc1ccc2sccc2c1)c1ccc(Cl)s1
10 | 649 | CCN1c2cc(C(N)=O)ccc2C(=O)N2CCCCCC21 (stereo not drawn)
11 | 980 | O=C(Nc1nc2c(s1)COc1ccccc1-2)C1COc2ccccc2O1 (stereo not drawn)
12 | 733 | Cc1cccn2cc(C(=O)NCc3ccc(F)cc3F)nc12
13 | 946 | O=C(Nc1ccccc1F)N1CC(c2nc(CCOCC3CCCC3)no2)C1
14 | 681 | COc1ccc(C(=O)Nc2cccc(-c3ccc(S(C)(=O)=O)nn3)c2)cc1OC
15 | 610 | COc1ccc(Cl)c2c(=O)c3c([nH]c12)CCN(CC(=O)Nc1ccc2c(c1)OCCO2)C3
16 | 1340 | Cc1ccc(-c2noc(-c3cccc(S(=O)(=O)N4CCCCC4)c3)n2)cc1
17 | 1220 | Cc1sc(-c2nc(C(C)C)cs2)cc1S(=O)(=O)Nc1cc(F)ccc1F
18 | 685 | Cc1ccc(CNC(=O)C2(C)CCCCC(=O)N2)cc1 (stereo not drawn)
19 | 588 | COc1ccc(-c2nc(N(CCCN3CCOCC3)Cc3ccco3)c3ccccc3n2)cc1
20 | 1140 | O=S(=O)(c1ccc2c(c1)CCC2)N1CC(c2nc(CCOCc3ccccc3)no2)C1
21 | 801 | CN1C(=O)CCc2cc(NS(=O)(=O)c3ccc(Br)s3)ccc21
22 | 898 | O=C(Cc1ccccc1)NCc1nc(-c2cccc(-c3ccn[nH]3)c2)no1

Row | RP-LC retention time [s] | Structure (SMILES)
23 | 846 | CCN1C(=O)CCc2cc(NS(=O)(=O)c3c(C)cccc3Cl)ccc21
24 | 968 | CCOc1cc(CNC(=O)C2CCCN(C(=O)c3cc(C)cc(C)c3)C2)cc(OCC)c1OCC (stereo not drawn)
25 | 648 | O=S(=O)(c1ccc(F)cc1F)N1CCC(CN2CCCCCC2)CC1
26 | 910 | Cc1ccc(-c2nocc2CCC(=O)NCc2ccccc2)cc1
27 | 954 | CCn1cc(-c2nc(CC(=O)N3CCc4ccccc43)cs2)c2cccnc21
28 | 862 | COc1cc(F)ccc1-c1ccnc2nc(CC(C)C)nn12
29 | 540 | Cc1nc(-c2ccncc2)nc2c1CCC(=O)N2Cc1ccncc1
30 | 533 | Cc1nc(-c2ccncc2)nc2c1CCC(=O)N2CCN1CCCC1
31 | 1230 | Cc1ccc(C2Cn3nnc(-c4nc(-c5ccccc5F)no4)c3CO2)c(C)c1 (stereo not drawn)
32 | 855 | CC(NC(=O)C1=C2CCCN2c2ccccc2S1(=O)=O)c1ccccc1 (stereo not drawn)
33 | 1000 | COc1ccc(Cl)cc1NC(=O)NC(C)C(=O)N1CCc2ccccc21 (stereo not drawn)
34 | 1200 | COc1ccccc1/C=C/c1nc(-c2cccc(-c3ccnn3C)c2)no1
35 | 662 | Cc1cc(N2CCCC2)n2nc(CN3CCN(c4ccccc4Cl)CC3)nc2n1
36 | 869 | O=C(Cn1ccn2nc(-c3ccccc3)c(CO)c2c1=O)Nc1ccc(Cl)cc1F
37 | 913 | O=C(c1ccc(F)c(Cl)c1)N1CCN(C(=O)c2nnn3c2COC(c2ccccc2)C3)CC1 (stereo not drawn)
38 | 693 | Cc1ccccc1-c1nc2cnccn2c1NCCC(=O)NCc1cc(F)cc(F)c1
39 | 713 | O=C1CS(=O)C2(CCN(S(=O)(=O)Cc3ccccc3)CC2)N1CC1CC1 (stereo not drawn)
40 | 845 | COCCNC(=O)C1Cc2ccccc2CN1S(=O)(=O)c1cccc(C)c1 (stereo not drawn)
41 | 692 | O=C1NCCCCCN(C(=O)c2ccsc2)[C@H]2CCC[C@@H]12
42 | 686 | CCC(=O)N1CCc2cc(N3CC(C(=O)NC4CCCC4)CC3=O)ccc21 (stereo not drawn)
43 | 766 | Cc1ccc(-n2nc3c(N4CCCC(C(=O)NCCc5ccccc5)C4)nnc(C)c3c2C)cc1 (stereo not drawn)
44 | 776 | Cc1ccc(NC(=O)Nc2cccn3ncnc23)cc1

The remaining lines, values behind:

Row | Structure (SMILES) | RP-LC retention time [s]
45 | CCOC(=O)C1CCN(Cc2cn3c(-c4ccc(OC)cc4)nnc3s2)CC1 | 563
46 | CCCNC(=O)c1cccc(-c2nc3cccnc3n2CCC)c1 | 705
47 | COc1ccc(NC(=O)c2cnc3c(c2)c(=O)n(C)c(=O)n3-c2ccccc2)cc1 | 862
48 | CC1CN(c2ccccc2)c2nc3c(c(=O)n(CC(=O)O)c(=O)n3C)n2C1 (stereo not drawn) | 709
49 | Cc1ccc(N2CC(c3nc(-c4cccnc4)no3)CC2=O)cc1Cl (stereo not drawn) | 862
50 | COC(=O)C(C)NC(=O)N1CCC2(CC1)Nc1cc(F)ccc1-n1cccc12 (stereo not drawn) | 865
51 | CS(=O)(=O)N(C1CCOCC1)C1CN(C(=O)Cc2c[nH]c3ccccc23)C1 | 667
52 | COCCN1C(=O)c2ccccc2C(C(=O)NCCCN2CCOCC2)C1c1cccs1 (stereo not drawn) | 805
53 | O=C(NCC1CCOCC1)Nc1ccccc1Cl | 741
54 | O=C(NCc1cccs1)c1ccc2c(c1)CC(=O)N2Cc1ccc(F)cc1 | 840
55 | Cc1cc(C(=O)Nc2nc(-c3ccc(Cl)cc3)c(C)s2)no1 | 1110
56 | Cc1ccc(C(=O)N2CCC(c3nc4ccncc4n3CC(C)C)C2)s1 (stereo not drawn) | 569
57 | Cc1ccc(NS(=O)(=O)c2ccc3c(c2)CCCC(=O)N3)cc1Cl | 806
58 | COc1ccc(C(=O)Nc2c(-c3ccc(F)cc3)nc3ccccn23)cc1OC | 625
59 | O=C(NCc1ccc(F)cc1Cl)C1CCN(c2cncnc2N2CCCC2)CC1 | 665
60 | CC(C)CC[C@@H](O)[C@](C)(O)C1CC[C@@]2(O)C3=CC(=O)[C@]4(O)C[C@@H](O)[C@@H](O)C[C@]4(C)C3[C@H](O)C[C@]12C (stereo partly drawn) | 638
61 | O=c1ccn(-c2ccc(F)c(F)c2)nc1-c1nc(-c2ccc3c(c2)OCO3)no1 | 877
62 | CN1C(=O)C(C)(C(=O)N2CCC(Cc3ccccc3)CC2)Oc2cccnc21 (stereo not drawn) | 1020
63 | C=CC(C)(C)c1cc(/C=C/C(=O)c2ccc(O)cc2)c(OC)cc1O | 903
64 | CCC(=O)Nc1ccc(-n2cnc(C(=O)N3CCN(c4ccccc4OC)CC3)c2)nc1 | 667
65 | CC1CCN(C(=O)CN2C(=O)CCCc3cc(S(=O)(=O)N4CCCCCC4)ccc32)CC1 | 956
66 | Cc1[nH]c2ccc(-c3nnc(SCC(=O)NC(C)c4nc5ccccc5[nH]4)o3)cc2c1C (stereo not drawn) | 667

Row | Structure (SMILES) | RP-LC retention time [s]
67 | CCN1C(=O)COc2ccc(-c3noc(CNC(=O)c4ccccc4)n3)cc21 | 802
68 | CN(C)[C@@H]1CN(C(=O)c2cc3cc(Cl)ccc3[nH]2)C[C@H]1CO | 622
69 | Cn1cc(S(=O)(=O)N2CCCCC2)cc1C(=O)N1CCN(c2cccc(Cl)c2)CC1 | 1050
70 | CC(Cc1ccco1)NC(=O)CC1CCN(C(=O)c2ccc3nc(-c4ccccc4)oc3c2)CC1 (stereo not drawn) | 830
71 | O=C(NCc1ccccc1)c1ncccn1 | 609
72 | CCc1nnc2ccc(NC(=O)Nc3ccccc3C)cn12 | 691
73 | Cn1cccc1C(=O)Nc1cnn(-c2ncc(N3CCCC3)cn2)c1 | 789
74 | Cc1ccc(NC(=O)N2CCN(c3cc(-c4ccncc4)[nH]n3)CC2)c(C)c1 | 615
75 | CCCc1ccc(S(=O)(=O)N2CCC3(CCC(CN4CCN(C)CC4)O3)CC2)cc1 (stereo not drawn) | 654
76 | CC1CCN(S(=O)(=O)c2ccc3nn(Cc4ccccc4)c(=O)n3c2)CC1 | 893
77 | Cc1cc(N2CCN(C(=O)c3ccc(Br)cc3)CC2)nc2nnc(C)n12 | 563
78 | COCCNC(=O)c1nc(-c2ccnc(N3CCCCC3)c2)no1 | 612
79 | COc1ccccc1CNC(=O)C1CCN(S(=O)(=O)c2ccc3c(c2)CCCC(=O)N3)CC1 | 816
80 | CCOc1ccccc1C(=O)Nc1cccn2nc(CC)nc12 | 1140
81 | O=C(Nc1nccs1)C1CCN(C(=O)C2CC(=O)N(c3ccc(F)cc3)C2)CC1 (stereo not drawn) | 672
82 | C=CCn1c(C(=O)NCCc2c[nH]c3ccccc23)cc2cc(S(=O)(=O)N(C)C)ccc21 | 981
83 | Cc1ccccc1CNC(=O)CCc1conc1-c1ccc(F)cc1 | 922
84 | Cc1nn2c(CNS(=O)(=O)Cc3ccccc3)c(-c3ccccc3)nc2s1 | 876
85 | Cn1c(C(=O)NC2CC2)cc2c1CCN(Cc1ccc(F)cc1)C2 | 590
86 | Cc1ccc(CNC(=O)c2c(C)sc3ncnc(N4CCCCC4)c23)cc1 | 1070
87 | Cc1nc(-c2ccccc2Cl)sc1C(=O)N[C@@H](Cc1c[nH]c2ccccc12)C(=O)O | 898
88 | CCc1ccc2[nH]c3c(c(=O)c2c1)CN(CC(=O)NCc1cccc(OC)c1)CC3 | 629
